Data from patent publication US20240003914A1 (THE SCRIPPS RESEARCH INSTITUTE, priority 2020, published 2024).

Key:
NADases = assay: NAD protection from degradation by NADases in brain homogenate; assay type: biochemical, mouse; settings: inhibitor added to aliquots of a brain sample after homogenisation; duplicate samples (FIG. 1F)
Description: Brain homogenates are disrupted and clarified by sonication (0.5 second per cycle, 45 cycles, 50% power) followed by centrifugation at 12,000 rpm, RT for 5 minutes. Supernatants are collected and fractionated using Amicon Ultra-2 centrifugal units with a 30 kDa cut-off. Flow-through is collected and NAD is measured using a cycling assay (NAD+/NADH-GloTM (Promega). The NAD+/NADH-GloTM assay is a bioluminescent, homogeneous assay for the detection of total NAD metabolite levels comprising the oxidized and reduced forms of NAD (NAD+ and NADH, respectively). An NAD cycling enzyme is used to convert NAD+ to NADH. In the presence of NADH, the provided reductase enzyme reduces a proluciferin reductase substrate to form luciferin. Luciferin is then quantified using Ultra-Glo recombinant luciferase, and the light signal produced is proportional to the amount of NAD+ and NADH in the sample. Cycling between NAD+ and NADH by the NAD cycling enzyme and reductase increases assay sensitivity and provides selectivity for nonphosphorylated NAD+ and NADH compared to the phosphorylated forms NADP+ and NADPH. Reading is performed between 10 and 50 minutes during the linear increase of the signal in a luminescence reader. NAD values are normalized by total protein concentrations. […] Error bars of duplicate samples are shown. […] Error bars of duplicate samples are shown.

C57BL/6 mice = assay: Whole blood NAD levels after oral treatment; assay type: in vivo, mouse; settings: 6 mg/kg SR005 or 100 mg/kg NAM, normalized by baseline (FIG. 8)
Description: Blood was collected and NAD detected as described in FIGS. 1A-1C. NAD values were normalized by baseline level for each mouse. Each line represents data for one mouse.

Compound: O=c1cc(-c2ccc(O)cc2)oc2cc(O)cc(O)c12 [apigenin]
- NAD protection from degradation by NADases (NADases): absence of protection

Compound: NC(=O)c1cccnc1 [NAM, nicotinamide]
- blood NAD levels after treatment (C57BL/6 mice): Increased blood NAD levels
